Columns and labels:
[1] = Preparation of liposomes (vesicle solution); assay type: physicochemical
Protocol: Cationic liposomes comprising derivatives I-XXI were prepared by dissolving the crystalline derivative in chloroform. The solvent was evaporated under a stream of nitrogen for 45 min in vacuum. The resulting thin films were resuspended in 4 ml deionized water, vortexed and sonicated in bath type sonicator 30′ until the solution became clear. (The final concentration of liposomes was 2.5 mM.) In order to prepare the liposomes of derivatives I-XXI (Table 2) high temperatures (40-65° C.) were used. Derivatives XXII-XXVII (Table 2) were dissolved in deionized water, vortexed and sonicated 5-7 min in a bath sonicator.

[2] = system: CV-1P (African monkey green kidney fibroblasts cells); assay: In vitro transfection of plasmid DNA, β-galactosidase activity per well; assay type: cell-based; details: for transfection efficiency: CVI-P
Procedure, shortened: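 CV-1P cells (20 000/well) given compound/DNA complexes at various charge ratios, prepared in 50 mM MES–50 mM HEPES–75 mM NaCl pH 7.2, 0.6 μg DNA/well, for 5 h at 37 °C, then 45 h in growth medium. Lysates assayed for β-galactosidase via oNPG hydrolysis at 405 nm against an E. coli enzyme standard; efficiency expressed as percent of Lipofectin.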

[3] = system: D407 (human retinal pigment epithelial) cells; assay: as above; assay type: cell-based; details: for transfection efficiency: D 407
Protocol: Transfer of plasmid DNA by various compounds was investigated by using CV-1P (African monkey green kidney fibroblasts cells) and D407 (human retinal pigment epithelial) cells.
The cells were cultured in Dulbecco's modified Eagle's medium (DMEM, Gibco), supplemented with 10% fetal bovine serum (FBS), penicillin/streptomycin (100 units/ml and 100 μg/ml respectively) and 2 mM L-glutamine for D 407 cell line. Cell cultures were maintained at 37° C. in a 7% CO2/air incubator. The cells were collected, counted and seeded in growth medium (100 μl) into 96-well culture plate, 20 000 cells per well. One day later the medium was replaced with fresh medium without serum (150 μl)
The complexes at different derivative/DNA charge ratios for transfection procedure were prepared just before use in 50 mM MES—50 mM HEPES—75 mM NaCl buffer, pH 7.2 in separate 96 well plates. One hour after changing the serum-free medium with 10% serum the complexes were added to the cells at 370C. Dose of DNA per well was 0.6 μg. After 5 h the complexes were removed, the cells were washed with PBS, and the normal growth medium was added. After 45 h of incubation at 37° C. the cells were lysed with 2% Triton X 100, twice deep frozen and the β-galactosidase activity in each well was determined spectrofotometrically with ELx800 automated microplate reader (Bio-Tex Instruments Inc., Winooski, Vt. USA) by monitoring the hydrolysis of o-nitrophenylgalactopyranoside (oNPG) at 405 nm. Purified β-galactosidase from E.coli was used to construct a standard curve and to calculate 9-galactosidase activity in the transfected cells. […] Transfection efficiencies are given as percentage in comparison to transfection efficiency of Lipofectin^R.

[4] = system: D 407 cells; assay: Cytotoxicity of amphiphile/DNA complexes, percentage of survived cells; assay type: cell-based, human; set-up: concentration or dose not given beside the values
[5] = system: plasmid DNA; assay: DNA condensation/complexation, EtBr displacement assay; assay type: binding
Procedure, shortened: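 Plasmid DNA (0.6 μg/well) was mixed with 0.002% EtBr in 20 mM HEPES–150 mM NaCl pH 7.4, then cationic liposomes were added at various +/− charge ratios.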

[6] = system: CVI-P cells; assay: Cytotoxicity of amphiphile/DNA complexes, percentage of survived cells
[7] = system: carotid arteries; assay: In vivo gene transfer to collared carotid arteries, X-gal staining; set-up: species or system New Zealand White rabbits; details: rabbit carotid artery
Protocol: For in vivo studies derivative/plasmid DNA complexes were prepared by the above mentioned method. After gentle swirling the mixtures were allowed to stand in room temperatures for 30 min. prior to use. The complexes were made in phosphate buffer saline and those having +/−charge ratios of 2-8 were used.
Five New Zealand White male rabbits of 2.5-3.5 kg were used. Fentanyl-fluanisone (0,3 mL/kg, s.c., Janssen Pharmaceutica, Beerse, Belgium) and midazolam (1.5 mg/kg, i.m., Roche, Basel, Switzerland) were used for anesthesia. Carotid arteries were exposed using midline neck incision. Arteries were carefully separated from the surrounding tissue and 3 cm silastic collar (MediGene Oy, Kuopio, Finland) was positioned around the artery. Rabbits were re-anesthetized for gene transfer, which was performed 5 days after the installation of the collars. The collars were opened and filled with 600 μL of the gene transfer solution. Rabbits were sacrificed three days after the gene transfer and arteries were removed for histological analyses.
Collared arteries were divided into three equal parts: the proximal third was immersion-fixed in 4% paraformaldehyde/15% sucrose (pH 7.4) for 4 h, rinsed in 15% sucrose (pH 7.4) overnight and embedded in paraffin. The medial third was stored at −70° C. for later analyses. The distal third was immersion-fixed in 4% paraformaldehyde/phosphate buffered saline (pH 7.4) for 30 min, rinsed 24 h in phosphate buffer (pH 7.2) and embedded in OCT compound.
Ten randomly selected frozen sections (10 μm) from each rabbit were stained with X-gal for 18 h to identify β-galactosidase positive cells. Mayers Carmalum-stain was, used as counter stain.

[8] = amphiphile/DNA +/− charge ratio 0.5
[9] = amphiphile/DNA +/− charge ratio 1
[10] = amphiphile/DNA +/− charge ratio 2
[11] = amphiphile/DNA +/− charge ratio 4
[12] = amphiphile/DNA +/− charge ratio 8

Compound | transfection efficiency [2, 8] | transfection efficiency [2, 9] | transfection efficiency [2, 10] | transfection efficiency [2, 11] | transfection efficiency [2, 12] | transfection efficiency [3, 9] | transfection efficiency [3, 10] | transfection efficiency [3, 11] | transfection efficiency [3, 12] | cytotoxicity as a percentage of survived cells [4, 8] | cytotoxicity as a percentage of survived cells [4, 9] | cytotoxicity as a percentage of survived cells [4, 10] | cytotoxicity as a percentage of survived cells [4, 11] | cytotoxicity as a percentage of survived cells [4, 12] | complexation, percentage of the maximum fluorescence signal when EtBr bound to DNA in the absence of an amphiphile [5, 8] | complexation, percentage of the maximum fluorescence signal when EtBr bound to DNA in the absence of an amphiphile [5, 9] | complexation, percentage of the maximum fluorescence signal when EtBr bound to DNA in the absence of an amphiphile [5, 10] | complexation, percentage of the maximum fluorescence signal when EtBr bound to DNA in the absence of an amphiphile [5, 11] | complexation, percentage of the maximum fluorescence signal when EtBr bound to DNA in the absence of an amphiphile [5, 12] | cytotoxicity as a percentage of survived cells [6, 8] | other results
3′,5′-Bis(cholesteryloxycarbonyl)-1′,4′-dihydro-1,2′,6′-trimethyl-3,4′-bipyridinium iodide [XII] |  |  |  |  |  |  |  |  |  |  |  |  |  |  |  |  |  |  |  |  | vesicle solution preparation, observation in words (phrases split over cells: 'Fast residue & crystalls'; 'No vesicle solution can be prepared') [1]: No
CCCCCCCCCCCCCCOC(=O)C1=C(C)NC(C)=C(C(=O)OCCCCCCCCCCCCCC)C1c1ccc[n+](C)c1.I.[I-] [VI, 1′,4′-Dihydro-1,2′,6′-trimethyl-3′,5′-bis(tetradecyloxycarbonyl)-3,4′-bipyridinium iodide] | 0,81 β-galactosidase units per well | 0,82 β-galactosidase units per well | 4,82 β-galactosidase units per well | 2,16 β-galactosidase units per well | 1,27 β-galactosidase units per well | 16,56 β-galactosidase units per well | 35,6 β-galactosidase units per well | 1,21 β-galactosidase units per well | 1,08 β-galactosidase units per well | 98,6% | 94,43% | 79,12% | 12,13% | 5,11% | 93,25% | 84,75% | 78,9% | 74,85% | 71,05% | 94,05% | transfection efficiency [3, 8]: 0,53 β-galactosidase units per well; melting point: 114 to 115 °C; cytotoxicity as a percentage of survived cells [6, 9]: 89,46%; cytotoxicity as a percentage of survived cells [6, 10]: 90,38%; cytotoxicity as a percentage of survived cells [6, 11]: 45,6%; cytotoxicity as a percentage of survived cells [6, 12]: 7,52%
CCCCCCCCCCCCCCCCOC(=O)C1=C(C)NC(C)=C(C(=O)OCCCCCCCCCCCCCCCC)C1c1ccc[n+](C)c1.I.[I-] [VII, 3′,5′-Bis(hexadecyloxycarbonyl)-1′,4′-dihydro-1,2′,6′-trimethyl-3,4′-bipyridinium iodide] | 0,73 β-galactosidase units per well | 0,39 β-galactosidase units per well | 2,2 β-galactosidase units per well | 0,81 β-galactosidase units per well | 0,61 β-galactosidase units per well | 0,82 β-galactosidase units per well | 1,37 β-galactosidase units per well | 0,98 β-galactosidase units per well | 0,63 β-galactosidase units per well | 95,82% | 84,83% | 62,61% | 55,53% | 51,38% | 90,6% | 86,95% | 83,11% | 79,25% | 77,6% | 102,34% | melting point: 112 to 113 °C (dec.); cytotoxicity as a percentage of survived cells [6, 9]: 97,03%; cytotoxicity as a percentage of survived cells [6, 10]: 103,62%; cytotoxicity as a percentage of survived cells [6, 11]: 99,84%; cytotoxicity as a percentage of survived cells [6, 12]: 88,71%
CCCCCCCCCCCCOC(=O)C1=C(C[n+]2ccccc2)NC(C[n+]2ccccc2)=C(C(=O)OCCCCCCCCCCCC)C1c1ccccc1.[Br-].[Br-] [XXIII, 1,1′-{[3,5-Bis(dodecyloxycarbonyl)-1,4-dihydro-4-phenylpyridine-2,6-diyl]dimethylene}bispyridinium dibromide] | 0,44 β-galactosidase units per well | 0,42 β-galactosidase units per well | 65,5 β-galactosidase units per well | 122,8 β-galactosidase units per well | 22,33 β-galactosidase units per well | 0,27 β-galactosidase units per well | 0,6 β-galactosidase units per well | 35,82 β-galactosidase units per well | 4,43 β-galactosidase units per well | 93,67% | 87,69% | 79,68% | 70,23% | 11,98% | 78,22% | 59,03% | 48,3% | 44,14% | 42,48% | 99,71% | level of transfection compared with DOTAP ([2]; CV1-P cells, FIG. 4): ten times higher; level of transfection compared with Lipofectin ([2]; CV1-P cells, FIG. 4): at least twenty times higher; highest level of beta-galactosidase expression ([2]; confluent CV1-P cells, without serum, without DOPE): 208 mU; transfection efficiency [3, 8]: 0,27 β-galactosidase units per well; level of transfection compared with Lipofectin ([3]; D407 cells, FIG. 4): at least twenty times higher; β-galactosidase activity in arteries, result in words ([7]; X-gal staining): detected at all study groups; gene transfer efficiency ([7]; derivative/plasmid complexes at three charge ratios, three days after gene transfer): 0.05-1.5%; most effective charge ratio ([7]; three charge ratios tested): +4; cytotoxicity as a percentage of survived cells [6, 9]: 94,54%; cytotoxicity as a percentage of survived cells [6, 10]: 93,48%; cytotoxicity as a percentage of survived cells [6, 11]: 89,35%; cytotoxicity as a percentage of survived cells [6, 12]: 42,72%

— US20030064954A1, “Cationic amphiphilic 1,4-dihydropyridine derivatives useful for delivery of nucleotide containing compounds” (priority 2000, published 2003)
